Measurements taken from patent US8283373B2, “Inhibitors of cytosolic phospholipase A2” (Pfizer Inc., priority 2005, dated 2012).

Key:
[1] = test system: Ascaris suum antigen-induced bronchoconstriction and AHR; settings: literature (Abraham et al. 1992; Jones et al. 1995); cited from earlier work
[2] = test system: primary dopaminergic neurons; test: MPP+ exposure in dopaminergic neurons; type: cell-based, rat; settings: 10 μM MPP+ 60 minutes, control 100, MPP+ alone 56.6
Method: Primary dopaminergic neurons were isolated from E15 rat embryos as described in Pong K., et al., (1997) J. Neurochem. 69 986-994. Briefly, the ventral mesencephalon was isolated and tissue was pooled in ice-cold phosphate buffer saline (PBS) without Ca^2+ and Mg^2+. The tissue was transferred to an enzymatic dissociation media containing 20 IU/ml papain in Earle's balanced salt solution (Worthington Biochemical, Freehold, N.J.) and incubated for 30 minutes at 37° C. After enzymatic dissociation, the papain solution was aspirated and the tissue mechanically triturated with a fire-polished Pasteur pipette in complete media [Neurobasal Medium with B-27 supplement (Gibco, Grand Island, N.Y.), penicillin/streptomycin, aphidicolin, glutamate] containing 2,000 IU/ml DNase and 10 mg/ml ovomucoid protease inhibitor. Single-cell suspensions in complete media were plated on pre-coated poly-L-ornithine/laminin 24-well plates (Becton-Dickinson, Bedford, Mass.) at a density of 5.0×10^5 cells/well. Cells were maintained for one week prior to experimentation.
Cultures were exposed to 10 μM MPP^+ for 60 minutes. After the exposure, fresh media was exchanged and fresh compound was added. Dopaminergic neuron viability was determined 24 hours later by measuring ^3H-dopamine uptake as described in Pong et al., 1997, supra.

serum thromboxane B2 = test: Thromboxane B2 levels in the ApoE KO mouse model; type: in vivo; settings: ApoE KO mice, 3.3 mg/g chow for two days; vehicle 76.1±17.3
Method: Blood was collected through the retro-orbital siunus and left to coagulate at 37° C. for one hour. Serum was then isolated and assayed for thromboxane B2 by ELISA.
In a separate experiment, ApoE KO mice were dosed with vehicle or the compound of Example 25 at 10 mg/kg by oral gavage. Blood was collected through the retro-orbital siunus and left to coagulate at 37° C. for one hour. Serum was then isolated and assayed for thromboxane B2 by ELISA.

[3] = test system: Human platelet aggregation; test: Platelet Function Analyzer (PFA-100) study; type: cell-based; settings: whole human blood, Collagen/Epinephrine cartridges, 1.25 μg/ml
Method: Human platelet aggregation was studied using the platelet function analyzer (PFA-100®). Human blood was collected from volunteers who had denied taking any platelet inhibitory medications over the previous two weeks. Blood was collected in 3.2% sodium citrate Vacutainer tubes (Becton Dickinson). Tubes were inverted 5 times and the blood was transferred to 15 ml polypropylene conical tubes. […] Tubes were inverted 10 times to mix, and allowed to sit at room temperature for 10 minutes prior to run in PFA-100. The manufacturers protocol was followed for the PFA-100 using Collagen/Epinephrine cartridges (0.5% DMSO alone in whole blood gave closure times of 125+/−13.9 seconds). Maximum closure time is 300 seconds, as set by the manufacturer.
All compounds were efficacious in the platelet function assay.

[4] = test system: atherosclerosis in ApoE KO mice; test: ApoE KO mouse model of atherosclerosis (20 weeks); type: in vivo; settings: for decrease of atherosclerotic plaque burden at the aortic sinus vs control / atherosclerotic plaque burden at the aortic sinus: 20 weeks; for atherosclerotic plaque burden at the aortic sinus: control 519220±100694; for Atherosclerotic Lesions Along the Aorta (percent lesion area), % Decrease vs Control: ns = not significant
Method: The apolipoprotein E (ApoE) knockout mouse was created by gene targeting in embryonic stem cells to disrupt the ApoE gene. ApoE is a glycoprotein that is responsible for the uptake of chylomicrons and VLDL particles by the liver, thereby preventing the accumulation of cholesterol rich remnants in the blood stream.
Six week old male ApoE KO mice were treated with 4-{3-[1-benzhydryl-5-chloro-2-(2-{[(3,4-dichlorobenzyl)sulfonyl]amino}ethyl)-1H-indol-3-yl]propyl}benzoic acid (Compound C).

[5] = Drug exposure in ApoE KO mice fed supplemented chow; type: in vivo, mouse; settings: chow supplemented at 3.3 mg/g

CC(c1cc2ccccc2s1)N(O)C(N)=O (stereo not shown) [zileuton]
effect on antigen-induced airway responses in the sheep model [1]: blocks antigen-induced late airway responses, inflammation, and AHR

O=C(O)c1ccc(CCCc2c(CCNS(=O)(=O)Cc3ccc(Cl)c(Cl)c3)n(C(c3ccccc3)c3ccccc3)c3ccc(Cl)cc23)cc1 [Compound C, 4-{3-[1-benzhydryl-5-chloro-2-(2-{[(3,4-dichlorobenzyl)sulfonyl]amino}ethyl)-1H-indol-3-yl]propyl}benzoic acid]
dopaminergic neuron viability (3H-dopamine uptake), Avg. ([2]; 0.3 μM): 68.6
dopaminergic neuron viability (3H-dopamine uptake), Avg. ([2]; 1 μM): 70.6
dopaminergic neuron viability (3H-dopamine uptake), Avg. ([2]; 3 μM): 75.9
dopaminergic neuron viability (3H-dopamine uptake), Avg. ([2]; 10 μM): 79.6
serum Thromboxane concentration (serum thromboxane B2): 33.5 ± 11.6 ng/mL
PFA-100 closure time [3]: increased closure time
Serum thromboxane B2 levels compared to control animals ([4]; 1.3 mg/g and 3.3 mg/g chow, after 9 and 20 weeks of treatment): significantly decreased
percent of total animals with Stage 3 (advanced fibrous plaque) ([4]; 1.3 mg/g chow): 33%
percent of total animals with Stage 4 (stable complicated lesion) ([4]; 1.3 mg/g chow): 56%
percent of total animals with Stage 5 (unstable complicated lesion) ([4]; 1.3 mg/g chow): 11%
decrease of atherosclerotic plaque burden at the aortic sinus vs control ([4]; 1.3 mg/g chow, p<0.05): 32.7%
atherosclerotic plaque burden at the aortic sinus ([4]; 1.3 mg/g chow): 349582±132685 μm^2
Serum Thromboxane B2 Levels, % Decrease vs Control ([4]; 1.3 mg/g chow, after 9 weeks of treatment): 52.5%
Serum Thromboxane B2 Levels, % Decrease vs Control ([4]; 1.3 mg/g chow, after 20 weeks of treatment): 36.6%
Atherosclerotic Lesions Along the Aorta (percent lesion area), % Decrease vs Control ([4]; 1.3 mg/g chow): 32.4 ns %
percent of total animals with Stage 1 (fibrofatty lesion) ([4]; 3.3 mg/g chow): 9%
percent of total animals with Stage 2 (early fibrous plaque) ([4]; 3.3 mg/g chow): 18%
percent of total animals with Stage 3 (advanced fibrous plaque) ([4]; 3.3 mg/g chow): 37%
percent of total animals with Stage 4 (stable complicated lesion) ([4]; 3.3 mg/g chow): 27%
percent of total animals with Stage 5 (unstable complicated lesion) ([4]; 3.3 mg/g chow): 9%
decrease of atherosclerotic plaque burden at the aortic sinus vs control ([4]; 3.3 mg/g chow, p<0.001): 45.6%
atherosclerotic plaque burden at the aortic sinus ([4]; 3.3 mg/g chow): 282697±146462 μm^2
Serum Thromboxane B2 Levels, % Decrease vs Control ([4]; 3.3 mg/g chow, after 9 weeks of treatment): 61.2%
Serum Thromboxane B2 Levels, % Decrease vs Control ([4]; 3.3 mg/g chow, after 20 weeks of treatment): 49.5%
Atherosclerotic Lesions Along the Aorta (percent lesion area), % Decrease vs Control ([4]; 3.3 mg/g chow): 35.2 ns %
atherosclerotic lesion complexity at the aortic sinus vs control ([4]; 1.3 and 3.3 mg/g chow): reduced
maximum drug exposure [5]: ~500 ng/mL
